These results are taken from patent publication US12187662B2, “FOXM1 inhibitor compositions and methods of using the same” (The Board of Trustees of the University of Illinois, priority 2018, dated 2025).

A word on the pIC50: it is −log10 of the IC50, conventionally taken in molar units. Usually half-life stands for the time needed for the level to fall by half in the phase considered. A low value points to fast loss. The AUC(0-t) is the area under the concentration-time curve up to a stated or last time point. Low readings indicate low exposure, high ones high exposure.

pIC50: −log10 of the molar value. Like-named read-outs stand apart in the source and are kept apart here.

The test system of one series is MCF7 cells. In words: Cell proliferation assay (WST-1), MCF7. It counts as cell-based, human. As for the experimental part:
(§1) All cells were tested for mycoplasma using Real-Time PCR Mycoplasma Detection Kit (Akron Biotech, Boca Raton, FL).
(§2) All assays were performed in triplicate.
A general note: Formazan colour is commonly taken as a measure of viable cells.

The next series has as its system DT22 cells. The series can be described thus: Cell proliferation assay (WST-1), DT22. It counts as cell-based, human. As for the experimental part:
as §1, §2

In the next series the test system is MDA-MB-231 cells. The series can be described thus: Cell proliferation assay (WST-1), MDA-MB-231. It counts as cell-based, human. As for the experimental part: as §1, §2
The nature of series [1]: Pharmacokinetic studies in mice after single s.c. or oral dose. Conditions: for half-life / AUC(0-t): female, CD-1, mouse, plasma.
Where [2] appears, read: Homo sapiens, MCF7, inhibition of cell proliferation, read-out: IC50 MCF7.
The mark [3] stands for this setting: Homo sapiens, DT-22, inhibition of cell proliferation.
The mark [4] stands for this setting: Homo sapiens, MDA-MB-231, inhibition of cell proliferation, read-out: IC50 MDA-MB-231.
Where [5] appears, read: Homo sapiens, MCF7, read-out: IC50 MCF7.
[6] abbreviates: inhibition of cell proliferation, read-out: IC50 MCF7.

For the compound `C[N+]1(CCCCOc2ccc(C(=C3C4CC5CC(C4)CC3C5)c3ccc(OCCCC[N+]4(C)CCCCC4)cc3)cc2)CCCCC1` [NB-86, 1-(4-(4-((E)-((5R,7R)-adamantan-2-ylidene)(4-(4-(1-metheyliumylpiperidin-1-ium-1-yl)butoxy)phenyl)methyl)phenoxy)butyl)-1-methylpiperidin-1-ium diiodide], the results for the pIC50 with MCF7 cells (setting [2]), in the series with DT22 cells (setting [3]) and in the series with MDA-MB-231 cells (setting [4]) were 5.85, 5.72 and 5.96, respectively.
As to `c1cc(C(=C2C3CC4CC(C3)CC2C4)c2ccc(OCCCCCCN3CCCCCC3)cc2)ccc1OCCCCCCN1CCCCCC1` [NB-72, 1,1′-((((((5r,7r)-Adamantan-2-ylidene)methylene)bis(4,1-phenylene))bis(oxy))bis(hexane-6,1-diyl))bis(azepane)], the negative logarithm of the IC50 (pIC50) in the series with MCF7 cells (setting [5]) and in the series on DT22 cells (setting [3]) was 6.15 in each case.
In the case of `CCN(CC)CCOCCOCCOc1ccc(C(=C2C3CC4CC(C3)CC2C4)c2ccc(OCCOCCOCCN(CC)CC)cc2)cc1` [NB-53, 2,2′-(((((((((5r,7r)-adamantan-2-ylidene)methylene)bis(4,1-phenylene))bis(oxy))bis(ethane-2,1-diyl))bis(oxy))bis(ethane-2,1-diyl))bis(oxy))bis(N,N-diethylethan-1-amine)], the pIC50 with MCF7 cells (setting [2]) was 5.46; in the series with MDA-MB-231 cells (setting [4]), greater than 5.30.
Consider `CC[N+](C)(CCO)CCCCCCOc1ccc(C(=C2C3CC4CC(C3)CC2C4)c2ccc(OCCCCCC[N+](C)(CC)CCO)cc2)cc1` (centres unmarked) [NB-134, 6,6′-(((((5r,7r)-adamantan-2-ylidene)methylene)bis(4,1-phenylene))bis(oxy))bis(N-ethyl-N-(2-hydroxyethyl)-N-methylhexan-1-aminium) diiodide], for which the pIC50 is 5.96 in the series with MCF7 cells (setting [2]) and 5.82 in the series with DT22 cells (setting [3]).
Turning to `c1cc(C(c2ccc(OCCCCCCN3CCCCC3)cc2)=C2[C@H]3C[C@@H]4C[C@@H](C[C@H]2C4)C3)ccc1OCCCCCCN1CCCCC1` [NB-70, 1,1′-((((((5r,7r)-Adamantan-2-ylidene)methylene)bis(4,1-phenylene))bis(oxy))bis(hexane-6,1-diyl))dipiperidine], the half-life in series [1] (po, 60 mg/kg) was 90.9 h. Moreover, the AUC(0-t) in series [1] (po, 60 mg/kg, PK p.o. AUC0-48, mice, 60 mg/kg p.o.) came out at 6 µM·h; in series [1] (sc, 60 mg/kg, PK s.c. AUC0-48, mice, 60 mg/kg s.c.), 10.2 µM·h. For the same compound, the negative-log IC50 (pIC50) was 6.15 in the series on MCF7 cells (setting [5]) and 6.05 with MDA-MB-231 cells (Homo sapiens, MDA-MB-231, read-out: IC50 MDA-MB-231).
For the compound `c1cc(C(=C2C3CC4CC(C3)CC2C4)c2ccc(OCCCCCCCCN3CCCCCC3)cc2)ccc1OCCCCCCCCN1CCCCCC1` [NB-80, 1,1′-((((((5r,7r)-adamantan-2-ylidene)methylene)bis(4,1-phenylene))bis(oxy))bis(octane-8,1-diyl))bis(azepane)], the values for the negative-log IC50 (pIC50) with MCF7 cells (setting [2]) and in the series with DT22 cells (setting [3]) were 5.57 and 5.47, respectively.
On to `CCN(CC)CCCCCCOc1ccc(C(=C2C3CC4CC(C3)CC2C4)c2ccc(O)cc2)cc1` [NB-41, 4-((E)-((5R,7R)-adamantan-2-ylidene)(4-((6-(diethylamino)hexyl)oxy)phenyl)methyl)phenol], for which the half-life in series [1] (po, 40 mg/kg) was 15.1 h; in series [1] (sc, 40 mg/kg), 22.5 h. The AUC(0-t) came out at 5.6 µM·h in series [1] (po, 40 mg/kg, PK p.o. AUC0-48, mice, 40 mg/kg p.o.) and 13.3 µM·h in series [1] (sc, 40 mg/kg, PK s.c. AUC0-48, mice, 40 mg/kg s.c.). In addition, the pIC50 in the series on MCF7 cells (setting [2]) is 5.70 to 5.82; in the series on MCF7 cells (setting [6]), 5.82; in the series with DT22 cells (setting [3]), 5.70 to 5.82; with DT22 cells (inhibition of cell proliferation, read-out: IC50 DT-22), 5.70.
As for “6-(4-((Z)-((5S,7S)-adamantan-2-ylidene)(4-chlorophenyl)methyl)phenoxy)-N,N-diethylhexan-1-amine [NB-54]”, the pIC50 was 5.40 in the series with MCF7 cells (setting [6]) and 5.40 in the series on MDA-MB-231 cells (inhibition of cell proliferation, read-out: IC50 MDA-MB-231).
`C[N+]1(CCCCCCCCOc2ccc(C(=C3C4CC5CC(C4)CC3C5)c3ccc(OCCCCCCCC[N+]4(C)CCCCCC4)cc3)cc2)CCCCCC1.[I-].[I-]` [NB-81, 1,1′-((((((5r,7r)-adamantan-2-ylidene)methylene)bis(4,1-phenylene))bis(oxy))bis(octane-8,1-diyl))bis(1-methylazepan-1-ium) diiodide]: the “Outcome of animals in PK study” value in series [1] (mice, 40 mg/kg s.c adm.) is reported as “Died at 40 mg/kg s.c adm”. The negative logarithm of the IC50 (pIC50) was 6.22 in the series with MCF7 cells (setting [2]) and 5.80 in the series with DT22 cells (setting [3]).
